The structures appear in SMILES notation. Bounds are passed on as bounds.

Data set [1] relates to Chikungunya virus. Description: Antiviral activity against CHIKV infected in human Huh-7 cells assessed as inhibition of viral infection by measuring EGFP-positive cells measured 24 hrs post infection by fluorescent microscopic analysis. It counts as functional, organism-based. As to conditions: Huh-7, 24 h.
Data set [2] relates to West Nile virus. Kind of data set: Antiviral activity against WNV infected in human Huh-7 cells assessed as inhibition of viral infection measured 24 hrs post infection by immunofluorescent assay. It counts as functional, organism-based. As to conditions: Huh-7, 24 h.
Data set [3] has as its system Zika virus. Description: Antiviral activity against ZIKV infected in human Huh-7 cells assessed as inhibition of viral infection measured 24 hrs post infection by immunofluorescent assay. It counts as functional, organism-based. As to conditions: Huh-7, 24 h.
Data set [4] can be described thus: Cytotoxicity against human Huh-7 cells assessed as reduction in cell viability incubated for 24 hrs by CCK-8 assay. It counts as toxicity, cell-based. In general terms: Formazan colour is commonly taken as a measure of viable cells.
Data set [5] deals with Chikungunya virus. Kind of data set: Potency index, ratio of baicalein IC50 to test compound IC50 for antiviral activity against CHIKV infected in human Huh-7 cells assessed as inhibition of viral infection by measuring EGFP-positive cells measured 24 hrs post infection by fluorescent microscopic analysis. It counts as functional.
Data set [6] relates to West Nile virus. Kind of data set: Potency index, ratio of baicalein IC50 to test compound IC50 for antiviral activity against WNV infected in human Huh-7 cells assessed as inhibition of viral infection measured 24 hrs post infection by immunofluorescent assay. Format: functional.
In data set [7] the test system is Zika virus. Kind of data set: Potency index, ratio of baicalein IC50 to test compound IC50 for antiviral activity against ZIKV infected in human Huh-7 cells assessed as inhibition of viral infection measured 24 hrs post infection by immunofluorescent assay. Format: functional.
The test system of data set [8] is West Nile virus. Kind of data set: Antiviral activity against WNV infected in human Huh-7 cells assessed as inhibition of viral infection at 20 uM measured 24 hrs post infection by immunofluorescent assay relative to control. Format: functional.
Data set [9] has as its system Zika virus. Kind of data set: Antiviral activity against ZIKV infected in human Huh-7 cells assessed as inhibition of viral infection at 20 uM measured 24 hrs post infection by immunofluorescent assay relative to control. It counts as functional.

Regarding `O=c1cc(-c2ccc(N3CCN(c4cccc(Cl)c4)CC3)cc2)oc2cc(O)c(O)c(O)c12`, the half-inhibitory concentration (IC50) amounted to 4.3 µM in [1], 5.1 µM in data set [2] and 5.7 µM in data set [3]. For the same compound, in data set [4], the cytotoxic concentration (CC50) at 24 h is greater than 100 µM.
Consider `Oc1c(O)c(O)c2c(=S)cc(-c3ccccc3)oc2c1-c1ccc(C(F)(F)F)cc1`, for which the half-inhibitory concentration (IC50) in data set [1] worked out at 2.7 µM; in data set [2] it was 2.1 µM; in data set [3], 3.8 µM. Also, the 50% cytotoxic concentration (CC50) at 24 h in [4] was greater than 100 µM. The “Ratio IC50” value is greater than 5 in [5], greater than 6 in data set [6] and greater than 5 in [7].
Take `O=c1cc(-c2ccccc2)oc2c(-c3ccc(OC(F)(F)F)cc3)c(O)c(O)c(O)c12`: the IC50 in data set [1] was determined as 5.2 µM; in [2], 6.4 µM; in data set [3], 8.3 µM. The CC50 at 24 h in data set [4] was greater than 100 µM.
For `Oc1cc2oc(-c3ccccc3)cc(=S)c2c(O)c1O`, in data set [1], the IC50 turned out to be 7.6 µM. Moreover, the inhibition at 20 µM in data set [8] and in data set [9] was less than 50% in each case. For the same compound, the 50% cytotoxic concentration (CC50) at 24 h in [4] was greater than 100 µM.
With `Cc1ccc(-c2c(O)c(O)c(O)c3c(=O)cc(-c4ccccc4)oc23)cc1`, the IC50 in data set [1] was found to be 7.9 µM. For the same compound, the inhibition at 20 µM in data set [8] and in [9] was less than 50% each time. The CC50 at 24 h in data set [4] is greater than 100 µM.
With `O=c1cc(-c2ccccc2)oc2c(-c3ccc(F)cc3)c(O)c(O)c(O)c12`, the IC50 was found to be 4.2 µM in data set [1], 3.1 µM in [2] and 2.5 µM in data set [3]. The CC50 at 24 h in data set [4] was greater than 100 µM. Moreover, the “Ratio IC50” value in data set [7] is recorded as greater than 5.
With `O=c1cc(-c2ccc(Nc3ccc(F)cc3)cc2)oc2cc(O)c(O)c(O)c12`, the figures for the IC50 in [1], in data set [2] and in [3] were 4.8 µM, 4.5 µM and 6.9 µM, respectively. Moreover, the cytotoxic concentration (CC50) at 24 h in [4] is greater than 100 µM.
Turning to `O=c1cc(-c2ccccc2)oc2c(-c3ccccc3)c(O)c(O)c(O)c12`, the results for the IC50 in data set [1], in data set [2] and in data set [3] were 5.8 µM, 3.1 µM and 5.8 µM, respectively. In addition, in [4], the CC50 at 24 h amounted to 86.3 µM.
As for `COc1c(OC)c(OC)c2c(=O)cc(-c3ccccc3)oc2c1-c1ccc(OC(F)(F)F)cc1`, the IC50 in data set [1] worked out at 17.8 µM. In addition, the inhibition at 20 µM in data set [8] and in data set [9] was less than 50% each time. For the same compound, the CC50 at 24 h in data set [4] is greater than 100 µM.
On to `O=c1cc(-c2ccccc2)oc2c(-c3cccc(F)c3)c(O)c(O)c(O)c12`, for which the IC50 in data set [1] was 4.3 µM; in data set [2], 2.9 µM; in [3] it was 3.5 µM. The half-maximal cytotoxic concentration (CC50) at 24 h in data set [4] was greater than 100 µM. The “Ratio IC50” value in data set [7] is greater than 5.
As to `COc1cc2oc(-c3ccc(Nc4ccc(F)cc4)cc3)cc(=O)c2c(OC)c1OC`, the IC50 in data set [1] was 9.7 µM. The inhibition at 20 µM in data set [8] and in data set [9] was less than 50% each time. The CC50 at 24 h in [4] was determined as 77.6 µM.
For the compound `O=c1cc(-c2ccccc2)oc2c(-c3cc(F)cc(F)c3)c(O)c(O)c(O)c12`, the IC50 in data set [1] stood at 8.6 µM. Moreover, the inhibition at 20 µM in data set [8] and in data set [9] was less than 50% in each case. The CC50 at 24 h in data set [4] was greater than 100 µM.
Turning to `Cc1cccc(-c2c(O)c(O)c(O)c3c(=O)cc(-c4ccccc4)oc23)c1`, in data set [1], the IC50 is 8.7 µM. Besides, the inhibition at 20 µM in data set [8] and in data set [9] was less than 50% in each case. The CC50 at 24 h in data set [4] was greater than 100 µM.
Consider `O=c1cc(-c2ccc(N3CCN(c4ccc(O)cc4)CC3)cc2)oc2cc(O)c(O)c(O)c12`, for which the IC50 in [1] is 5.9 µM; in data set [2] it was 6.6 µM; in data set [3], 6.9 µM. In addition, the 50% cytotoxic concentration (CC50) at 24 h in [4] is greater than 100 µM.
For `CN1CCN(c2ccc(-c3cc(=O)c4c(O)c(O)c(O)cc4o3)cc2)CC1`, the IC50 in data set [1] stood at 8.9 µM. The inhibition at 20 µM in data set [8] and in data set [9] was less than 50% in each case. Moreover, in data set [4], the CC50 at 24 h was greater than 100 µM.
Regarding `Oc1c(O)c(O)c2c(=S)cc(-c3ccccc3)oc2c1-c1ccc(F)cc1`, the results for the half-maximal inhibitory concentration (IC50) in [1], in data set [2] and in data set [3] were 4.7 µM, 6.2 µM and 7.7 µM, respectively. In addition, the CC50 at 24 h in data set [4] was greater than 100 µM.
The matching figures for `O=c1cc(-c2ccc(Nc3ccc(Br)cc3)cc2)oc2cc(O)c(O)c(O)c12`: 5.2 µM, 4.1 µM, 6.7 µM and greater than 100 µM.
As for `COc1cc2oc(-c3ccccc3)cc(=S)c2c(OC)c1OC`, in [1], the half-inhibitory concentration (IC50) is 9.7 µM. Further, the inhibition at 20 µM in data set [8] and in data set [9] was less than 50% throughout. Besides, the CC50 at 24 h in data set [4] is greater than 100 µM.
In the case of `Oc1c(O)c(O)c2c(=S)cc(-c3ccccc3)oc2c1-c1cccc(F)c1`, in data set [1], the IC50 worked out at 9.7 µM. Further, the inhibition at 20 µM in data set [8] and in data set [9] was less than 50% throughout. The cytotoxic concentration (CC50) at 24 h in [4] was greater than 100 µM.
`O=c1cc(-c2ccc(Nc3ccc(Cl)cc3)cc2)oc2cc(O)c(O)c(O)c12`: the figures for the IC50 in [1], in data set [2] and in data set [3] were 3.4 µM, 2.4 µM and 1.9 µM, respectively. Moreover, in data set [4], the half-maximal cytotoxic concentration (CC50) at 24 h was greater than 100 µM. In addition, the “Ratio IC50” value is reported as greater than 5 in data set [5], greater than 6 in data set [6] and greater than 5 in data set [7].
For the compound `COc1cc2oc(-c3ccc(N4CCN(C)CC4)cc3)cc(=O)c2c(OC)c1OC`, the concentration for half-maximal inhibition (IC50) in [1] came out at 11.5 µM. In addition, the inhibition at 20 µM in [8] and in data set [9] was less than 50% each time. Moreover, the half-maximal cytotoxic concentration (CC50) at 24 h in data set [4] is greater than 100 µM.
For `O=c1cc(-c2ccccc2)oc2cc(O)c(O)c(O)c12` [BAICALEIN], the concentration for half-maximal inhibition (IC50) in data set [1] worked out at 16.9 µM; in data set [2] it was 14.5 µM; in data set [3] it was 19.6 µM. Moreover, the CC50 at 24 h in data set [4] is greater than 100 µM.

What is called IC50 is the concentration that gives 50% inhibition. Usually CC50 stands for the concentration giving 50% cytotoxicity. Usually inhibition stands for the change of the read-out against control, counted positive when it falls.

The values above are taken from ChEMBL document CHEMBL5113447, “Synthesis of baicalein derivatives and evaluation of their antiviral activity against arboviruses” (Bioorg Med Chem Lett, 2022).
